Assays:
[1] = molecular target: T1, Bromodomain-containing protein 2 (Homo sapiens, UniProt P25440); assay: Binding affinity to human partial length BRD2 bromodomain 2 isoform 1 (E348 to D455 residues) expressed in bacterial expression system by BROMOscan assay
[2] = molecular target: T2, Transcription intermediary factor 1-alpha (Homo sapiens, UniProt O15164); assay: Binding affinity to human partial length TRIM24 (P790 to P977 residues) expressed in bacterial expression system by BROMOscan assay
T2 sequence (O15164 whole entry): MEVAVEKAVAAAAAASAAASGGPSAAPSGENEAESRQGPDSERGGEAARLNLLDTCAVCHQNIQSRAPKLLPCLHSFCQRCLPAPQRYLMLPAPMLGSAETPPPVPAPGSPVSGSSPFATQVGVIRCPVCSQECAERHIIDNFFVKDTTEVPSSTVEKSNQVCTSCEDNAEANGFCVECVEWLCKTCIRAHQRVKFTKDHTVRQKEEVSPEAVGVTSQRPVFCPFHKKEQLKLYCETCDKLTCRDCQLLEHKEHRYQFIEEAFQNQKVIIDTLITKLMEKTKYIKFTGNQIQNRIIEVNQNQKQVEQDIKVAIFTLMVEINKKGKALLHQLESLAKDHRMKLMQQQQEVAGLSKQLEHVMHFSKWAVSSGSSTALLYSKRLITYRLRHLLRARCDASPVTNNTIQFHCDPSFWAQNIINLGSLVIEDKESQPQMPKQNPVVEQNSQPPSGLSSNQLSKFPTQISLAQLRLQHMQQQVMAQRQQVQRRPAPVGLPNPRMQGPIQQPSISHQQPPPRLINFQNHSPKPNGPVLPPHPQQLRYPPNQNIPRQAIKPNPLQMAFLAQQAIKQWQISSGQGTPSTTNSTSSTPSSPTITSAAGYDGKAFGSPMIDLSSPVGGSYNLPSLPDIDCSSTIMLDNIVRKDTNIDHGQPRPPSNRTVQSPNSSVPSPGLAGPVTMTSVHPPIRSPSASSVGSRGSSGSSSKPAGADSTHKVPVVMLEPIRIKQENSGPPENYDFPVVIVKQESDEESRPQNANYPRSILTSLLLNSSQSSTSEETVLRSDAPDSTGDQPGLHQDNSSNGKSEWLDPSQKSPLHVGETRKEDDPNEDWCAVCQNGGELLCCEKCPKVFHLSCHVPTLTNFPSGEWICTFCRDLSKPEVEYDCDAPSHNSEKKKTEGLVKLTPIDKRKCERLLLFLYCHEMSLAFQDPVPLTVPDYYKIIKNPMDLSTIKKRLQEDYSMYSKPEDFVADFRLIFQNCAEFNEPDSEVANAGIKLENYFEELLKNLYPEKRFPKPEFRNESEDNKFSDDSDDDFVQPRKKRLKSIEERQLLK

THP-1 = assay: Antiproliferative activity against human THP-1 cells after 72 hrs by cell titer glo assay; assay type: functional, cell-based; conditions: THP-1, 72 h
[3] = molecular target: T1, Bromodomain-containing protein 2; assay: Binding affinity to full length BRD2 BD2 in human HuT78 cell lysates incubated for 45 mins by liquid chromatography-mass spectrometry based chemoproteomic binding assay; assay type: subcellular
[4] = molecular target: T3, Bromodomain-containing protein 3 (Homo sapiens, UniProt Q15059); assay: Binding affinity to human partial length BRD3 bromodomain 1 (P24 to E144 residues) expressed in bacterial expression system by BROMOscan assay
[5] = molecular target: T4, Bromodomain testis-specific protein (Homo sapiens, UniProt Q58F21); assay: Binding affinity to human partial length BRDT bromodomain 1 (N21 to E137 residues) expressed in bacterial expression system by bromoscan assay
[6] = molecular target: T3, Bromodomain-containing protein 3; assay: Binding affinity to full length BRD3 BD2 in human HuT78 cell lysates incubated for 45 mins by liquid chromatography-mass spectrometry based chemoproteomic binding assay; assay type: subcellular
[7] = Intrinsic clearance in rat hepatocytes at 0.5 uM measured up to 60 mins by LC-MS/MS analysis; assay type: ADME, cell-based, Hepatocyte; conditions: 1 h
[8] = molecular target: T1, Bromodomain-containing protein 2; assay: Binding affinity to full length BRD2 BD1 in human HuT78 cell lysates incubated for 45 mins by liquid chromatography-mass spectrometry based chemoproteomic binding assay; assay type: subcellular
[9] = Permeability of the compound in pH 7.4 phosphate buffer measured after 3 hrs by artificial membrane permeability assay based HPLC analysis; assay type: ADME; conditions: PAMPA, pH 7.4, read-out: permeability
[10] = molecular target: Transcription initiation factor TFIID subunit 1-like (Homo sapiens, UniProt Q8IZX4); assay: Binding affinity to human partial length TAF1L bromodomain 2 (Q1523 to D1654 residues) expressed in bacterial expression system by BROMOscan assay
[11] = Inhibition of LPS-induced MCP1 production in PBMC (unknown origin); assay type: functional, tissue-based
[12] = molecular target: T4, Bromodomain testis-specific protein; assay: Binding affinity to human partial length BRDT bromodomain 2 (K250 to E382 residues) expressed in bacterial expression system by bromoscan assay

T1 sequence (P25440 whole entry, the tested form may be a part, canonical isoform): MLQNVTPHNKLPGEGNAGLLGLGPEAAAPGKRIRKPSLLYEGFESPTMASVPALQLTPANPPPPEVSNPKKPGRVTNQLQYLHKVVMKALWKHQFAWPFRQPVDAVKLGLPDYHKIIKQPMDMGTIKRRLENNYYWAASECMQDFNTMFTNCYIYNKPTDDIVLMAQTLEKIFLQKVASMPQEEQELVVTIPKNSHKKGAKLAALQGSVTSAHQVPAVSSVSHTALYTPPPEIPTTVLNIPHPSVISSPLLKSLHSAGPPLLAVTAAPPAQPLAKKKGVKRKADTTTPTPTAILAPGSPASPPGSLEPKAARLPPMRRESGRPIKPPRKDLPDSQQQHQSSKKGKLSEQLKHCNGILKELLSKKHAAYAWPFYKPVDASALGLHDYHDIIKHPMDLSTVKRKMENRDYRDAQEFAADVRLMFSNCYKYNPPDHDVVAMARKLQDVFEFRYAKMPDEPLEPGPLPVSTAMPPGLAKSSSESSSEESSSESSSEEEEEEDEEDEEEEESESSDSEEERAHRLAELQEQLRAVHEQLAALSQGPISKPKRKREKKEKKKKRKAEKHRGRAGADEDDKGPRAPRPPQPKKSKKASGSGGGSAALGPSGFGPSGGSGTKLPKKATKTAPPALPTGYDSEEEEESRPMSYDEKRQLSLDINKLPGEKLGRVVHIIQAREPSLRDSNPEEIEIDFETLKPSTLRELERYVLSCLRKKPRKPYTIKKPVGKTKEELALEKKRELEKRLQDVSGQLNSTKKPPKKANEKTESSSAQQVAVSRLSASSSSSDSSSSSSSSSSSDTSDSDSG
T3 sequence (Q15059 whole entry, the tested form may be a part): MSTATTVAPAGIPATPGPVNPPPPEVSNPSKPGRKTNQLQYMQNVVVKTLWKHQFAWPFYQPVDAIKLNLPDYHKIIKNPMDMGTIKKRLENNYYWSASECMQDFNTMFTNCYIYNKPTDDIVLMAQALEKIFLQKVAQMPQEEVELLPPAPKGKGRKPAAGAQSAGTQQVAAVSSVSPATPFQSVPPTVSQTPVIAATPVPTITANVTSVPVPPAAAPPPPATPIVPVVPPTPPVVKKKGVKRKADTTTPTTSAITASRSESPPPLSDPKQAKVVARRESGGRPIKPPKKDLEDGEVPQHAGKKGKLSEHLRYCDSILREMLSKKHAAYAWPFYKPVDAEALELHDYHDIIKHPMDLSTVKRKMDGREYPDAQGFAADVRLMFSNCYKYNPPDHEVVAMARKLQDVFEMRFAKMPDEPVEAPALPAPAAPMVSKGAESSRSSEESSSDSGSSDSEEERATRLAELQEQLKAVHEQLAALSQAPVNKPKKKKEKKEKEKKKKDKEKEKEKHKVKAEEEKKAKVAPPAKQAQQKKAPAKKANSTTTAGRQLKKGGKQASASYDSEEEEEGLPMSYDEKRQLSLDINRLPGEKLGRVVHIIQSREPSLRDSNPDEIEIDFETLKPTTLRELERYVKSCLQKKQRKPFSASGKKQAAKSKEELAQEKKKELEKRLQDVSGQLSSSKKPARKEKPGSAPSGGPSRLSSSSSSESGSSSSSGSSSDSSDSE
Sequence of Transcription initiation factor TFIID subunit 1-like (Q8IZX4 whole entry, the tested form may be a part): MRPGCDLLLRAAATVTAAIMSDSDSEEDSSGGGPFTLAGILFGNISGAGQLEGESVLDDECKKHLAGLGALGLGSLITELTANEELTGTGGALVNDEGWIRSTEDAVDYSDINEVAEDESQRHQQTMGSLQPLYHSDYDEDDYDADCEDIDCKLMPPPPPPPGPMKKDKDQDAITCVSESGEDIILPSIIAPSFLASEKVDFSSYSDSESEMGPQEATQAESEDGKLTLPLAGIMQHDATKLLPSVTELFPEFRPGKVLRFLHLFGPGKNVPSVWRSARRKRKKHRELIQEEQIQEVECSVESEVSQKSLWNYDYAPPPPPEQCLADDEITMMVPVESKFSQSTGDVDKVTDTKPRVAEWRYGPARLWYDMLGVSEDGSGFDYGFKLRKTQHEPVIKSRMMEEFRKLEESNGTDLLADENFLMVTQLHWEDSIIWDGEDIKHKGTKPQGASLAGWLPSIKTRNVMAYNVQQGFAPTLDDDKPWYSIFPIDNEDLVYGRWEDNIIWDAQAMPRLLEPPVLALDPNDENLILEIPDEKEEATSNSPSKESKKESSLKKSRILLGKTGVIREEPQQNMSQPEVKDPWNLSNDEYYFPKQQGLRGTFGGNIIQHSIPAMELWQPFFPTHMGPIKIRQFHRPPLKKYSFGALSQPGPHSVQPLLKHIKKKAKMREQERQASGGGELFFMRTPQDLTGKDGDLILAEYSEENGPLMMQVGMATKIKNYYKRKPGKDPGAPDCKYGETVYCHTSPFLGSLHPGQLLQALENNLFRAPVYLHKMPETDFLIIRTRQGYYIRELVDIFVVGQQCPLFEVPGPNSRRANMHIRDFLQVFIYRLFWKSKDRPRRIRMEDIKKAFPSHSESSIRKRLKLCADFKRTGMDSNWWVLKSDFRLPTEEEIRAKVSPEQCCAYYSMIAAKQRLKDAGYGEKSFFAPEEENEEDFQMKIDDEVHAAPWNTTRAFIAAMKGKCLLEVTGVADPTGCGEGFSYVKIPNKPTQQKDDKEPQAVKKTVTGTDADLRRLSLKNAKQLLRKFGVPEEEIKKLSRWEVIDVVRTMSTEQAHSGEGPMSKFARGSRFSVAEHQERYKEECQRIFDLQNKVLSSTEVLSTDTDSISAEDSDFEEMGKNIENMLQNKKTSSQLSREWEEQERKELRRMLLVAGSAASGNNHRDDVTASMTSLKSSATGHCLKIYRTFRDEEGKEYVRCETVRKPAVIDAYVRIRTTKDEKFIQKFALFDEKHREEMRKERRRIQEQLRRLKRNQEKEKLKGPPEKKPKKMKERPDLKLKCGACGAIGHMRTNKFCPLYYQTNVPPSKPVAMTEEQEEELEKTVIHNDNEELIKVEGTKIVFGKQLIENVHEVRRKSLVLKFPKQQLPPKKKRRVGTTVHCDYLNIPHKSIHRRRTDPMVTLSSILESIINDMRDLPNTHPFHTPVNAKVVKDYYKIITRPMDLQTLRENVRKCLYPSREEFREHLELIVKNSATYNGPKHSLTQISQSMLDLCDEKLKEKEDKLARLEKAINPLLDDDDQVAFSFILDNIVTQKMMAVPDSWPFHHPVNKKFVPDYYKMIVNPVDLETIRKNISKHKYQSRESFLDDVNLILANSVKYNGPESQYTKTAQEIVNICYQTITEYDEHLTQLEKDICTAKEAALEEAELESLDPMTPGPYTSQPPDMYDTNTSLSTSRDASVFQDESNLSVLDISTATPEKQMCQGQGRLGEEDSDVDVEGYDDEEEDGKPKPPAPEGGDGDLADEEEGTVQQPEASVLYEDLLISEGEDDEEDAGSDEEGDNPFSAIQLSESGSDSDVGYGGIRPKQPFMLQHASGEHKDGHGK

Cc1cc2c(-c3ccco3)cnc(N[C@@H]3CCN(C)C[C@H]3C(=O)NC3CCCCC3)c2[nH]c1=O [GSK789]
Kd [1]: 25100 nM
Kd [2]: 20000 nM
IC50 (THP-1): 158 nM
Kd [3]: > 25100 nM
Kd [4]: 15.8 nM
Kd [5]: 20 nM
Kd [6]: 6310 nM
CLH [7]: 14.88 mL/min/g
Kd [8]: 3.98 nM
Papp at 3 h [9]: 19 ×10⁻⁶ cm/s
Kd [10]: 398 nM
IC50 [11]: 20 nM
Kd [12]: 20000 nM
